Source: ChEMBL document CHEMBL5523746, “Discovery of Novel Peptide Antagonists Targeting GPR55 for Liver Inflammation and Fibrosis” (2024)
Active and inactive are the calls of the source. Bridge positions count the residues as written; N and C are the ends. Peptide text beside a SMILES is read from it.

Columns and labels:
LX-2 [1] = assay: Anti-fibrotic activity in human LX2 cells assessed as reduction in […] expression by measuring relative inhibition rate measured after 24 hrs incubation by Western blot analysis relative to control; format: functional; set-up: concentration or dose not given beside the values
LX-2 [2] = assay: Anti-fibrotic activity in human LX2 cells assessed as reduction in COL1alpha expression by measuring relative inhibition rate measured after 24 hrs incubation by Western blot analysis relative to control; format: functional; set-up: concentration or dose not given beside the values
Mus musculus [3] = assay: In vivo anti-fibrotic activity against CCl4-induced liver fibrosis C57BL/6J mouse model assessed as decrease in steatosis and inflammation at 150 to 300 microg/kg once daily for 3 weeks by H and E staining based assay; format: functional, organism-based; settings: dose 150-300 µg/kg
Mus musculus [4] = assay: In vivo anti-fibrotic activity against CCl4-induced liver fibrosis C57BL/6J mouse model assessed as decrease in inflammation at 150 to 300 microg/kg once daily for 3 weeks by IHC staining based assay; format: functional, organism-based; settings: dose 150-300 µg/kg
Mus musculus [5] = assay: In vivo anti-fibrotic activity against CCl4-induced liver fibrosis C57BL/6J mouse model assessed as decrease in alpha-SMA at 150 to 300 microg/kg once daily for 3 weeks by IHC staining based assay; format: functional, organism-based; settings: dose 150-300 µg/kg
Mus musculus [6] = assay: In vivo anti-fibrotic activity against CCl4-induced liver fibrosis C57BL/6J mouse model assessed as decrease in COL1alpha at 150 to 300 microg/kg once daily for 3 weeks by IHC staining based assay; format: functional, organism-based; settings: dose 150-300 µg/kg
Mus musculus [7] = assay: In vivo anti-fibrotic activity against CCl4-induced liver fibrosis C57BL/6J mouse model assessed as liver function by measuring decrease in serum amino-transferase (ALT) at 150 to 300 microg/kg once daily for 3 weeks by bio-chemical analysis; format: functional, organism-based; settings: dose 150-300 µg/kg
Mus musculus [8] = assay: In vivo anti-fibrotic activity against CCl4-induced liver fibrosis C57BL/6J mouse model assessed as liver function by measuring decrease in amino-transferase (ALT) at 150 to 300 microg/kg once daily for 3 weeks by Western blot analysis; format: functional, organism-based; settings: dose 150-300 µg/kg
Mus musculus [9] = assay: In vivo anti-fibrotic activity against CCl4-induced liver fibrosis C57BL/6J mouse model assessed as reduction in […] mRNA level at 150 to 300 microg/kg once daily for 3 weeks by RT-qPCR analysis; format: functional, organism-based; settings: dose 150-300 µg/kg
Mus musculus [10] = assay: In vivo anti-fibrotic activity against CCl4-induced liver fibrosis C57BL/6J mouse model assessed as reduction in Acta2 mRNA level at 150 to 300 microg/kg once daily for 3 weeks by RT-qPCR analysis; format: functional, organism-based; settings: dose 150-300 µg/kg
Mus musculus [11] = assay: In vivo anti-fibrotic activity against CCl4-induced liver fibrosis C57BL/6J mouse model assessed as reduction in oxidative stress by measuring increase in catalase at 150 to 300 microg/kg once daily for 3 weeks by enzyme activity assay; format: functional, organism-based; settings: dose 150-300 µg/kg
Mus musculus [12] = assay: In vivo anti-fibrotic activity against CCl4-induced liver fibrosis C57BL/6J mouse model assessed as reduction in hepatocyte apoptosis by measuring decrease in BAX protein level at 300 microg/kg once daily for 3 weeks by TUNEL assay; format: functional, organism-based; settings: dose 300.0 µg/kg
Mus musculus [13] = assay: In vivo anti-fibrotic activity against CCl4-induced liver fibrosis C57BL/6J mouse model assessed as reduction in hepatocyte apoptosis by measuring increase in BAX protein in cytoplasm at 300 microg/kg once daily for 3 weeks; format: functional, organism-based; settings: dose 300.0 µg/kg
Mus musculus [14] = assay: In vivo anti-fibrotic activity against CCl4-induced liver fibrosis C57BL/6J mouse model assessed as increase in anti-apoptotic protein BCL2 level at 300 microg/kg once daily for 3 weeks by Western blot analysis; format: functional, organism-based; settings: dose 300.0 µg/kg
Mus musculus [15] = assay: In vivo anti-fibrotic activity against CCl4-induced liver fibrosis C57BL/6J mouse model assessed as decrease in pro-apoptotic protein BIM level at 300 microg/kg once daily for 3 weeks by Western blot analysis; format: functional, organism-based; settings: dose 300.0 µg/kg
Mus musculus [16] = assay: In vivo anti-fibrotic activity against CCl4-induced liver fibrosis C57BL/6J mouse model assessed as decrease in pro-apoptotic protein caspase-8 level at 300 microg/kg once daily for 3 weeks by Western blot analysis; format: functional, organism-based; settings: dose 300.0 µg/kg
Mus musculus [17] = assay: In vivo anti-fibrotic activity against methionine and choline-deficient (MCD) diet-induced liver fibrosis C57BL/6J mouse model assessed as decrease in inflammatory infiltration and collagen deposition at 150 to 300 microg/kg once daily for 3 weeks by H and E staining based assay; format: functional, organism-based; settings: dose 150-300 µg/kg
Mus musculus [18] = assay: In vivo anti-fibrotic activity against methionine and choline-deficient (MCD) diet-induced liver fibrosis C57BL/6J mouse model assessed as decrease in inflammatory infiltration and collagen deposition at 150 to 300 microg/kg once daily for 3 weeks by Sirius Red staining based assay; format: functional, organism-based; settings: dose 150-300 µg/kg
Mus musculus [19] = assay: In vivo anti-fibrotic activity against methionine and choline-deficient (MCD) diet-induced liver fibrosis C57BL/6J mouse model assessed as reduction in inflammation by measuring decrease in CD68 inflammation marker at 150 to 300 microg/kg once daily for 3 weeks by IHC staining based assay; format: functional, organism-based; settings: dose 150-300 µg/kg
Mus musculus [20] = assay: Reduction in fatty acid synthesis related gene expression in methionine and choline-deficient (MCD) diet-induced liver fibrosis C57BL/6J mouse model assessed as reduction in SCD1 mRNA level at 150 to 300 microg/kg once daily for 3 weeks by qPCR analysis; format: functional, organism-based; settings: dose 150-300 µg/kg
Mus musculus [21] = assay: Reduction in fatty acid synthesis related gene expression in methionine and choline-deficient (MCD) diet-induced liver fibrosis C57BL/6J mouse model assessed as reduction in FAS mRNA level at 150 to 300 microg/kg once daily for 3 weeks by qPCR analysis; format: functional, organism-based; settings: dose 150-300 µg/kg
Mus musculus [22] = assay: Induction of fatty acid beta-oxidation related gene expression in methionine and choline-deficient (MCD) diet-induced liver fibrosis C57BL/6J mouse model assessed as increase in MCAD mRNA level at 150 to 300 microg/kg once daily for 3 weeks by qPCR analysis; format: functional, organism-based; settings: dose 150-300 µg/kg
Mus musculus [23] = assay: Induction of fatty acid beta-oxidation related gene expression in methionine and choline-deficient (MCD) diet-induced liver fibrosis C57BL/6J mouse model assessed as increase in LCAD mRNA level at 150 to 300 microg/kg once daily for 3 weeks by qPCR analysis; format: functional, organism-based; settings: dose 150-300 µg/kg
Mus musculus [24] = assay: Induction of fatty acid beta-oxidation related gene expression in methionine and choline-deficient (MCD) diet-induced liver fibrosis C57BL/6J mouse model assessed as increase in […] mRNA level at 150 to 300 microg/kg once daily for 3 weeks by qPCR analysis; format: functional, organism-based; settings: dose 150-300 µg/kg
Mus musculus [25] = assay: Induction of fatty acid beta-oxidation related gene expression in methionine and choline-deficient (MCD) diet-induced liver fibrosis C57BL/6J mouse model assessed as increase in PPARalpha mRNA level at 150 to 300 microg/kg once daily for 3 weeks by qPCR analysis; format: functional, organism-based; settings: dose 150-300 µg/kg
Mus musculus [26] = assay: Induction of fatty acid beta-oxidation related gene expression in methionine and choline-deficient (MCD) diet-induced liver fibrosis C57BL/6J mouse model assessed as increase in PGC1A mRNA level at 150 to 300 microg/kg once daily for 3 weeks by qPCR analysis; format: functional, organism-based; settings: dose 150-300 µg/kg
Mus musculus [27] = assay: In vivo anti-fibrotic activity against methionine and choline-deficient (MCD) diet-induced liver fibrosis C57BL/6J mouse model assessed as reduction in ROS treated at 150 to 300 microg/kg once daily for 3 weeks by qPCR analysis; format: functional, organism-based; settings: dose 150-300 µg/kg
Mus musculus [28] = assay: In vivo anti-fibrotic activity against methionine and choline-deficient (MCD) diet-induced liver fibrosis C57BL/6J mouse model assessed as reduction in hepatocyte apoptosis at 150 to 300 microg/kg once daily for 3 weeks by TUNEL assay; format: functional, organism-based; settings: dose 150-300 µg/kg

Measured: Activity

CC[C@H](C)[C@@H]1NC(=O)[C@H]([C@@H](C)O)NC(=O)[C@@H]2CCCN2C(=O)[C@H](CO)NC(=O)[C@H](CC(N)=O)NC(=O)[C@H](CCCCN)NC(=O)[C@H](CCCCN)NC(=O)[C@@H](N)CSSC[C@@H](C(=O)O)NC1=O (H-CKKNSPTIC-OH; disulfide 1-9)
47%: LX-2 [1]
40%: LX-2 [2]
active: all other assays above
